# Reference: patent publication US20080014247A1, “METAL-CONTAINING FORMULATIONS AND METHODS OF USE” (Nucryst Pharmaceuticals, priority 2006, published 2008)
# Entries after “also recorded” stand apart in the source; their conditions may differ. Where two headings read alike, the source gives them in different places.
# Legend:
# [1] = Compatibility of nanocrystalline silver with excipients; assay type: physicochemical; settings: 10% aqueous solution of excipient, 40° C. overnight
# Streptococcus pneumoniae = test: MIC assay (microdilution); assay type: cell-based; settings: lactate solutions
# Escherichia coli = test: MIC assay (microdilution); assay type: cell-based
# DNBS-induced colitis [2] = test: DNBS-induced colitis in rat: total IBD score; assay type: in vivo
# Text: Animals: Male Sprague-Dawley rats, weighing approximately 250-300 gm were purchased from Charles River Laboratories (Raleigh, N.C.). The animals were housed under standard conditions with free access to food and water. They were acclimatized for 2-3 days before commencing the experiments. The study protocol was approved by the Institutional Animal Care and Use Committees (IACUC).
# Induction of ulcerative colitis: Colitis was produced according to published methods. Animals were anesthetized by intraperitoneal injection of 75 mg/kg of ketamine plus 5 mg/kg of xylazine. A single intracolonic injection of 120 mg/ml of dinitrobenzenesulfonic acid (DNBS) (Sigma Chemicals, St. Louis, Mo.) in 250 micro liter of 50% ethanol was administered through a Tom Cat catheter (Kendall Sovereign, Mansfield, Mass.) with a closed-end tip, connected to a 1 ml syringe and placed 7 cm proximal to the anus. Lubricant was applied to the tip of the catheter before injection, to protect from mucosal injury. After instillation of DNBS, 0.5 ml of air was insufflated and the catheter was removed.
# Sulfasalazine (Sigma Chemicals, St Louis, Mo.), at a concentration of 120 mg/ml for intracolonic treatment and 30 mg/ml for oral treatment was used as the reference drug in all the experiments. Sulfasalazine was first dissolved in 0.1M NaOH at a concentration about 30-fold higher than the required final concentration, and then suspended in 1.5% PVA for oral dosing and 5.7% PVA for intracolonic dosing.
# One group was not treated and served as no treatment group. Treatment began one day after administration of DNBS.
# Macroscopic Observations: Body weight was recorded daily and the animals were examined for their physical appearance. After five days of treatment, animals were sacrificed. The colon was excised between the ileocecal junction and rectum, and opened longitudinally. After scoring of the consistency of the stool the colon was rinsed in normal saline, examined and thickness of the colonic wall and number and size of ulcers were scored. Stool consistency was graded on a scale of 0-3: 0=normal stool, well formed pellets rigid as normal; 1=loose stool, formed pellet with moisture, soft stool keeping in stool shape; 2=loose stool, stools that have abnormal form with much moisture, softer shapeless stool; 3=watery or bloody diarrhea.
# Thickness of colonic wall was graded on a scale of 0-4: 0=normal, no thickness; 1=mild thickness in lower portion of the colon; 2=moderate thickness in localized area; 3=moderate thickness extending to the central portion of the colon; 4=severe thickness in the whole colon. Colonic ulceration was graded on a scale of 0-10: 0=no ulcers; 1=one small ulcer less than 2-3 mm; 2=one large ulcer more than 2-3 mm; 3=two large ulcerations more than 2-3 mm in diameter; 4=two or more sites of ulcerations extending 1 cm along the length; 5-10=when an area of ulceration extended more than 1 cm along the length of the colon, the score increases by 1 for each additional cm of involvement. The total IBD score, obtained by the sum of the scores of colonic ulcer, colon thickness and stool consistency for each animal, was calculated for each treatment group.
# Methods: Colitis was induced in rats using DNBS as described in Example 25. Animals were treated intracolonically (250 μl of the test reagents) once a day for five days. […] Methods: Colitis was induced in rats using DNBS as described in Example 25. Animals were treated intracolonically (250 μl of the test reagents) once a day for five days.
# Streptococcus pyogenes = test: MIC assay (microdilution); assay type: cell-based; settings: lactate solutions
# [3] = tested on: Staphylococcus epidermidis; test: MIC assay (microdilution); assay type: cell-based; settings: S. epiderm (ATCC); lactate solutions
# [4] = tested on: Mycobacterium tuberculosis H37Ra (ATCC 25177); test: microbe, parasite or virus in culture; assay type: cell-based
# Pseudomonas aeruginosa = test: MIC assay (microdilution); assay type: cell-based
# Staphylococcus aureus = test: MIC assay (microdilution); assay type: cell-based; settings: lactate solutions
# TNF-α = test: Immunohistochemical staining of colon tissue; assay type: in vivo, rat; settings: oral treatment, five days
# Experimental: (§1) Immunohistochemistry: A Universal Streptavidin/Biotin detection system (Thermo Shandon, Pittsburgh, Pa.) was used for immunohistochemical staining of formalin fixed, paraffin embedded biopsies of the colon. After dewaxing, and hydration, sections were treated with protein blocking agent to reduce non-specific binding of antibodies. The tissues were then incubated with rabbit anti-rat TNF-α, or mouse anti-rat IL-12 p70 antibodies (Biosource International, Inc, Camarillo, Calif.); rabbit anti-rat IL-1β (Serotec, Raleigh, N.C.) or rabbit anti-rat MMP-9 antibody (Chemicon International, Telecuma, Calif.) in 1% bovine serum albumin in phosphate buffered saline. Incubations with secondary antibodies, streptavidin/biotin, and chromogenic detection of peroxidase were performed according to the manufacturer's protocol. Sections were counterstained, dehydrated, mounted and examined. The intensity of the immuno-peroxidase staining was graded as described previously. Expression of cytokines was graded as: 0, no staining in the section; 1, less than 25% of the section; 2, 25-50% of the section; 3, 50-75% of the section; 4, >75% of the section with significant staining.
# IL-1β = test: Immunohistochemical staining of colon tissue; assay type: in vivo, rat; settings: oral treatment, five days
# Experimental: as §1
# MMP-9 [5] = test: Immunohistochemical staining of colon tissue; assay type: in vivo, rat; settings: oral treatment, five days
# Experimental: as §1
# DNBS-induced colitis [6] = test: DNBS-induced colitis in rat: colon histopathological inflammation score; assay type: in vivo; settings: oral 100 mg/kg, five days
# Experimental: Histopathology: A piece of colonic tissue at 2-4 cm proximal to the anus was excised and fixed in 10% formalin and the sections were stained with hematoxylin and eosin. The remaining length of the colonic tissues was stored at −80° C. for subsequent biochemical assays. The histology slides were examined by a veterinary pathologist who was blinded to the treatment groups. The extent of microscopic mucosal damage of the colon was scored on scale of 0-5 as described with slight modification: 0=normal histological appearance; 1=histological damage limited to surface epithelium, mild infiltration of the submucosa; 2=focal ulceration and cell disruption limited to mucosa, abnormal appearance of colonic wall, mild infiltration of inflammatory cells; 3=focal, transmural inflammation and ulceration, with mild to moderate infiltration of inflammatory cells; 4=Extensive transmural ulceration and inflammation bordered by areas of normal mucosa, moderate infiltration of inflammatory cells; 5=extensive transmural ulceration and inflammation involving entire section from epithelium to serosa, severe infiltration of inflammatory cells.
# [7] = DNBS-induced colitis in rat: body weight; assay type: in vivo; settings: rats with DNBS colitis, intracolonic or oral treatment
# MMP-9 [8] = test: Gelatin zymography of colonic homogenates; assay type: in vivo, rat; settings: oral 100 mg/kg
# Experimental: Gelatin Zymography Activities of MMP-9 and MMP-2 in colonic tissue homogenates were determined by gelatin zymography as described previously. Briefly, colonic homogenates were mixed with equal volume of zymograph sample buffer. Samples were loaded on a 10% SDS-polyacrylamide gel containing 0.1% gelatin. After electrophoresis, the SDS was removed from the gel by incubation with renaturing buffer containing 2% Triton-X-100 for 1 hour. The gel was incubated overnight in developing buffer containing 50 mM Tris-HCl, pH 7.8, 5 mM CaCl2, 0.2 M NaCl, 0.02% Brij-35. The gel was subsequently stained with Coumassie blue for 30 minutes and destained with destaining solution containing 8% acetic acid and 4% methanol. Gelatinolytic activity was determined as transparent bands against the blue background of stained gelatin. MMPs were identified by their molecular weight compared with the standards. Absence of a transparent band on the gel was evidenced as no MMP-9 or MMP-2 activity of the sample tested.
# Enterobacter cloacae = test: MIC assay (microdilution); assay type: cell-based
compound,measurement,setting,value
O=C([O-])c1ccccc1.[Na+] [Sodium benzoate],Reaction with nanocrystalline silver,[1],White precipitate
CC(O)CO (centres unmarked) [Propylene glycol],Reaction with nanocrystalline silver,[1],Discoloration
silver oxide [Ag2O],MIC,Streptococcus pneumoniae; S. pneumo (clin 314),3 µg/mL
same,MIC,Streptococcus pneumoniae; S. pneumo (clin 315),2 µg/mL
same,MIC,"Escherichia coli; E. coli (ATCC), lactate solutions",0.8 µg/mL
same,total IBD score,"DNBS-induced colitis [2]; 0.05% sonicated nanodispersion, 250 μl intracolonically once a day for five days","but not 0.15% and 0.05%, significantly reduced"
same,total IBD score,"DNBS-induced colitis [2]; 0.15% sonicated nanodispersion, 250 μl intracolonically once a day for five days","but not 0.15% and 0.05%, significantly reduced"
same,total IBD score,"DNBS-induced colitis [2]; 0.25% homogenized, 250 μl intracolonically once a day for five days",unable to show significant reduction
same,total IBD score,"DNBS-induced colitis [2]; 0.5% homogenized, 250 μl intracolonically once a day for five days",unable to show significant reduction
same,total IBD score,"DNBS-induced colitis [2]; 0.5% sonicated nanodispersion, 250 μl intracolonically once a day for five days, vs placebo",significantly reduced the total IBD score
same,total IBD score,"DNBS-induced colitis [2]; 1.5% sonicated nanodispersion, 250 μl intracolonically once a day for five days",significantly reduced the total IBD score
same,MIC,Streptococcus pyogenes; S. pyog (clin. 303),2 µg/mL
same,MIC,Streptococcus pyogenes; S. pyog (clin. 304),3 µg/mL
same,MIC,[3],2 µg/mL
same,MIC,[4],2.5 μg/ml silver
same,MIC,"Pseudomonas aeruginosa; P. aerug (ATCC), lactate solutions",0.8 µg/mL
same,MIC,"Pseudomonas aeruginosa; P. aerug. (clin.), lactate solutions",2 µg/mL
same,MIC,Staphylococcus aureus; S. aureus (ATCC),3 µg/mL
same,MIC,Staphylococcus aureus; S. aureus (clin.),6 µg/mL
CC[C@@H](CO)NCCN[C@@H](CC)CO [ethambutol],MIC,[4]; Mycobacterium tuberculosis,2 µg/mL
CCCCCCCCCCCCCCCCCC(=O)OCC(O)CO (centres unmarked) [Glycerol monostearate],Reaction with nanocrystalline silver,[1],Brown discoloration
"CCOCCOCCO [Transcutol, diethylene glycol monoethyl ether]",Reaction with nanocrystalline silver,[1],Grey color - no discoloration
"O=C(O)c1cc(/N=N/c2ccc(S(=O)(=O)Nc3ccccn3)cc2)ccc1O [sulfasalazine, salicylazosulfapyridine]",expression of TNF-α in colonic tissue,TNF-α,significantly reduced the expression of TNF-α and IL-1β
same,expression of IL-1β in colonic tissue,IL-1β,significantly reduced the expression of TNF-α and IL-1β
same,expression of MMP-9 in colonic tissue,MMP-9 [5],significantly reduced the expression of MMP-9
same,histopathological inflammation score,DNBS-induced colitis [6],significantly reduced the histopathological inflammation
same,total IBD score,"DNBS-induced colitis [2]; intracolonic 100 mg/kg, five days",Significant reduction of IBD score; also recorded: significantly reduced total IBD score
same,total IBD score,"DNBS-induced colitis [2]; intracolonic 100 mg/kg, five days, listed as Sulfasalazine",significantly reduced total IBD score
same,total IBD score,"DNBS-induced colitis [2]; oral 100 mg/kg, five days",significant reduction of the IBD score
same,body weight,[7],started gaining body weight after one day of treatment
same,MMP-9 activity,MMP-9 [8],reduced MMP-9 activity
CCCCCCCCCCCCCCCCCCO [Cetearyl alcohol],Reaction with nanocrystalline silver,[1],Light brown/green/black
CCCCCCCCCCCCCCCCCC(=O)O [Stearic acid],Reaction with nanocrystalline silver,[1],Grey color - no discoloration
Sodium parabens,Reaction with nanocrystalline silver,[1],Precipitation
CCCCCCCCCCCCCCCCO [Cetyl alcohol],Reaction with nanocrystalline silver,[1],Grey color - no discoloration
"OO [Sample H2O2, hydrogen peroxide]",MIC,Enterobacter cloacae; SOD and catalase +,>500 µg/mL
same,MIC,Enterobacter cloacae; SOD and catalase −,63 µg/mL
same,MIC,Escherichia coli; SOD and catalase +,>500 µg/mL
same,MIC,Escherichia coli; SOD and catalase −,31 µg/mL
same,Reaction with nanocrystalline silver,[1],Brown discoloration after drying
CCCOC(=O)c1ccc(O)cc1 [Propylparaben],Reaction with nanocrystalline silver,[1],Green discoloration
COC(=O)c1ccc(O)cc1 [Methylparaben],Reaction with nanocrystalline silver,[1],Brown discoloration
Benzalkonium chloride [BAC],MIC,Pseudomonas aeruginosa; isolate NP220 (BAC-sensitive),63 µg/mL
same,MIC,Pseudomonas aeruginosa; isolate NP221 (BAC-resistant),4000 µg/mL
same,MIC,Pseudomonas aeruginosa; isolate NP222 (BAC-sensitive),63 µg/mL
CCCCCCCCCCCCCC(=O)OC(C)C [Isopropyl myristate],Reaction with nanocrystalline silver,[1],Grey color - no discoloration
OCc1ccccc1 [Benzyl alcohol],Reaction with nanocrystalline silver,[1],Grey/slightly red
